In patent publication US20100056502A1, “COMPOUNDS” (GLAXO GROUP LIMITED, priority 2007, published 2010):
Where a name gives a salt, the structure may show the parent alone.

Each molecule was assayed on Mycobacterium tuberculosis H37Rv (assay: Mycobacterium tuberculosis H37Rv Inhibition Assay). Details: ATCC 25618 / H37Rv, H37Rv strain (ATCC25618), resazurin fluorescence readout.
Format: cell-based
Description: The measurement of the minimum inhibitory concentration (MIC) for each tested compound was performed in 96 wells flat-bottom, polystyrene microtiter plates. Ten two-fold drug dilutions in neat DMSO starting at 400 μM were performed. Five μl of these drug solutions were added to 95 μl of Middlebrook 7H9 medium. (Lines A-H, rows 1-10 of the plate layout). Isoniazid was used as a positive control, 8 two-fold dilution of Isoniazid starting at 160 μgml^−1 was prepared and 5 μl of this control curve was added to 95 μl of Middlebrook 7H9 (Difco catalogue Ref. 271310)+ADC medium (Becton Dickinson Catalogue Ref. 211887). (Row 11, lines A-H). Five μl of neat DMSO were added to row 12 (growth and Blank controls).
The inoculum was standardised to approximately 1×10^7 cfu/ml and diluted 1 in 100 in Middlebrook 7H9+ADC medium and 0.025% Tween 80 (Sigma P4780), to produce the final inoculum of H37Rv strain (ATCC25618). One hundred μl of this inoculum was added to the entire plate but G-12 and H-12 wells (Blank controls). All plates were placed in a sealed box to prevent drying out of the peripheral wells and they were incubated at 37° C. without shaking for six days. A resazurin solution was prepared by dissolving one tablet of resazurin (Resazurin Tablets for Milk Testing; Ref 330884Y VWR International Ltd) in 30 ml sterile PBS (phosphate buffered saline). 25 μl of this solution was added to each well. Fluorescence was measured (Spectramax M5 Molecular Devices, Excitation 530 nm, Emission 590 nm) after 48 hours to determine the MIC value.

Row | Structure (SMILES) | MIC
1 | O=C1COc2ccc(CNC3CCN(CC4CCn5c(=O)ccc6ccc(F)c4c65)CC3)nc2N1 (centres unmarked) [Example 11, 10-fluoro-1-[(4-{[(3-oxo-3,4-dihydro-2H-pyrido[3,2-b][1,4]oxazin-6-yl)methyl]amino}-1-piperidinyl)methyl]-2,3-dihydro-1H,5H-pyrido[3,2,1-ij]quinolin-5-one dihydrochloride] | ≤ 1.8 µg/mL
2 | O=C1COc2ccc(CNC3CCN(CC4CCN5C(=O)COc6ccc(F)c4c65)CC3)nc2N1 (centres unmarked) [Example 37, 8-Fluoro-7-[(4-{[(3-oxo-3,4-dihydro-2H-pyrido[3,2-b][1,4]oxazin-6-yl)methyl]amino}-1-piperidinyl)methyl]-6,7-dihydro-5H-[1,4]oxazino [2,3,4-ij]quinolin-3(2H)-one dihydrochloride] | ≤ 1.8 µg/mL
3 | O=C1COc2ccc(CN[C@H]3CCN(CC4CCn5c(=O)ccc6ccc(F)c4c65)C[C@H]3O)nc2N1 (stereo partly drawn) [Example 17, 10-fluoro-1-[((3R,4S)-3-hydroxy-4-{[(3-oxo-3,4-dihydro-2H-pyrido[3,2-b][1,4]oxazin-6-yl)methyl]amino}-1-piperidinyl)methyl]-2,3-dihydro-1H,5H-pyrido[3,2,1-ij]quinolin-5-one dihydrochloride] | ≤ 1.8 µg/mL
4 | O=C1COc2ccc(CNC3CCN(CC4CCn5c(=O)sc6ccc(F)c4c65)CC3)nc2N1 (centres unmarked) [Example 32, 7-Fluoro-6-[(4-{[(3-oxo-3,4-dihydro-2H-pyrido[3,2-b][1,4]oxazin-6-yl)methyl]amino}-1-piperidinyl)methyl]-5,6-dihydro-4H-[1,3]thiazolo[5,4,3-ij]quinolin-2-one dihydrochloride] | ≤ 1.8 µg/mL
5 | O=C1CSc2ccc(CNC3CCN(CC4CCn5c(=O)ccc6ccc(F)c4c65)CC3)nc2N1 (centres unmarked) [Example 10, 10-fluoro-1-[(4-{[(3-oxo-3,4-dihydro-2H-pyrido[3,2-b][1,4]thiazin-6-yl)methyl]amino}-1-piperidinyl)methyl]-2,3-dihydro-1H,5H-pyrido[3,2,1-ij]quinolin-5-one dihydrochloride] | ≤ 1.8 µg/mL
